Earlier results in patent publication US6956029B1, “Solid formulation of glucosamine sulphate” (SCA Lohnherstellungs AG, priority 1999, dated 2005).

Assays:
[1] = first acid dissociation constant
[2] = over 30 days at 75% rH/20° C.

pKa1 [1] | Structure (SMILES) | stability on storage [2]
4.1 | O=C1O[C@H]([C@@H](O)CO)C(O)=C1O [ascorbic acid] | 
3.1 | O=C(O)CC(O)(CC(=O)O)C(=O)O [citric acid] | 
 | N[C@H]1C(O)O[C@H](CO)[C@@H](O)[C@@H]1O.O=S(=O)([O-])O.[Cl-].[K+].[K+] (stereo partly drawn) [mixed salt with potassium chloride, D-glucosamine sulphate di-potassium chloride] | essentially stable
